{"source": "patent US20260191889A1", "about": "“TREHALOSE FOR TREATING HUNTINGTON'S DISEASE” (GLD Debt Acquisition 2025-1, priority 2022, published 2026)", "key": {"[1]": {"test_system": "Iba-1", "assay": "Iba-1 immunohistochemistry in brain of R6/2 mice", "format": "in vivo, Mus musculus", "conditions": "MT-treated vs untreated transgenic R6/2 mice, FIG. 5", "description": "(§1) Cryosectioning—Cryosectioning was performed to striatal (left hemisphere) (Bregma +1.30 mm to −0.8 mm from Bregma, containing the infusion site at +0.5 mm) region and sections were collected as 20 μm thick sections on slides. A series of sections consisted of 8 sections with an interval of 300 μm in-between each section. A total of 5 series were collected from the target region using subsequent slides. For phase I, Series 1 & 3 were used for IHC analysis of EM48, series 2 was used for Darpp-32, series 4 was used for Iba1+GFAP and Series 5 was used for piloting and negative controls. For phase II, A total of 6 series were collected from the target region using subsequent slides. Series 1 was used for IHC analysis of EM48, series 2 was used for Darpp-32, series 4 was used for Iba1+GFAP. […]\n(§2) For fluorescence immunohistochemistry (GFAP and Iba-1) the following general protocol was applied: […]\n(§3) Antigen expression analyses—The stained sections were scanned with the Olympus VS120 slide scanner using the proper fluorescent or brightfield channels. The regions of interest (ROIs) (striatum/cortex) were analyzed for positive immunostaining of the respective targets (EM48, DARPP-32, GFAP and Iba1) applying the VIS—Visiopharm Integrator System (Visiopharm, Denmark).\n(§4) Positive staining of the respective antigens was detected by applying a suitable threshold which recognizes only truly positive staining. […]"}, "[2]": {"test_system": "Huntington's disease (HD)", "assay": "Clinical scores of a subject with HD on weekly IV trehalose", "format": "in vivo, human", "description": "This study consisted of a 2-week screening period, a 24-week open-label treatment period, and a 2-week safety follow-up period. Eligible subjects received substantially purified trehalose, administered as a once weekly IV infusion over 60 minutes±5 min for volumes≤600 mL or 90 minutes±5 min for volumes>600 mL. The total volume of the infusion was based on the weight of the subject and a dose of 0.75 g trehalose per kg of subject weight (g/kg). An additional 52 weeks of open-label trehalose treatment was planned for consenting subjects who were determined to be medically appropriate after their completion of the primary 24-week open-label treatment period. The primary study objectives were to determine safety and tolerability, and treatment responses associated with trehalose administered to subjects with HD. Safety and tolerability were determined by incidences of treatment-emergent adverse events (TEAEs) and serious adverse events ([…]), including clinically significant laboratory or diagnostic testing abnormalities. Laboratory samples, electrocardiograms (ECGs), and a rating on the Columbia Suicide Severity Rating Scale (C-SSRS) were obtained from the subject at the screening/baseline and during week 4, week 12, and week 24. Physical and neurological examinations of the subject were conducted at the screening/baseline and during week 12 and week 24. Vital signs and adverse events (AEs) of the subject were obtained at visits for study drug infusions and any unscheduled visits. In addition, AEs of the subject were obtained by scheduled or unscheduled telephone communications. Treatment responses were determined by assessments and comparative analyses of the following clinical scores that were obtained at the screening/baseline and follow-up study visits. All subjects completed the Patient Global Impression of Change (PGIC), the Clinical Global Impression of Change (CGIC), and the Clinical Global Impression of Severity (CGI-S) during week 4, week 8, week 12, week 18, and week 24. In addition, all participants completed the Patient's Global Impression of Severity (PGI-S), EQ Visual Analog Scale (EQ-VAS), and the CGI-S on day 1 and during week 4, week 8, week 12, week 18, and week 24. At the screening/baseline and during week 4, week 8, week 12, week 18, and week 24, subjects completed the UHDRS-TFC and the UHDRS-Independence Scale."}, "[3]": {"test_system": "GFAP", "assay": "GFAP immunohistochemistry in brain of R6/2 mice", "format": "in vivo, Mus musculus", "conditions": "MT-treated vs untreated transgenic R6/2 mice, FIG. 4", "description": "as §1, §2, §3, §4"}, "[4]": {"test_system": "transgenic R6/2 mice (a disease model for Huntington's Disease)", "assay": "Body weight of R6/2 mice after treatment with MT", "format": "in vivo, Mus musculus", "conditions": "MT 5 g/kg i.p. 5 times per week, average±standard error (±0.6), vehicle 16.5, wild-type 30.7", "description": "(§5) Eleven male mice were treated with trehalose 5 g/kg (i.p. injection, 25 ml/kg, trehalose dose formulation concentration: 0.2 g/ml, with active trehalose corresponding to 5.252 g/kg of trehalose dihydrate), 5 times per week starting at 4 weeks of age. There were a total of 41 doses or doses stopped when mice were euthanized. Mice were euthanized at 8 weeks after first trehalose dose (12 weeks of age, n=8). n=3 mice/group were monitored until survival.\nBody Weights—Body weights were monitored twice per week throughout the study for all animals. Pre-trehalose treatment onset baseline body weight was used to assign the animals to experimental groups. Terminal body weights were not registered from animals found dead or euthanized moribund.\nMT was administered to mice i.p. 5 times per week (from Monday to Friday). Dose volume was 25 ml/kg. Dose was 5 g/kg. Pure trehalose dose formulation concentration was 0.2 g/ml. The last dose of animals euthanized at 8 weeks post infusion (age week 12) was 30 min prior to terminal sampling.\nBody Weight—Comparisons between two groups used a two-way Mixed-effects model (Mixed Anova) with Geisser-Greenhouse correction (not assuming sphericity), followed by Fisher's LSD test between the two groups performed for each time point. Time, group and the interaction of Time×Group were fixed effects, and the individual subject was the random effect. […]"}, "[5]": {"test_system": "neurofilament light chain (NfL) protein", "assay": "NfL concentration in blood serum of a subject with HD on weekly IV trehalose", "format": "in vivo, human", "conditions": "subject 02-001 (HD)", "description": "This study consisted of a 2-week screening period, a 24-week open-label treatment period, and a 2-week safety follow-up period. Eligible subjects received substantially purified trehalose, administered as a once weekly IV infusion over 60 minutes±5 min for volumes≤600 mL or 90 minutes±5 min for volumes>600 mL. The total volume of the infusion was based on the weight of the subject and a dose of 0.75 g trehalose per kg of subject weight (g/kg). An additional 52 weeks of open-label trehalose treatment was planned for consenting subjects who were determined to be medically appropriate after their completion of the primary 24-week open-label treatment period.\nBlood samples were obtained from subjects at the screening/baseline and during week 12 and week 24 for analyses. Blood serum was to determine the concentration of neurofilament light chain (NfL) protein in blood serum before and after initiation of trehalose treatment. Nfl concentrations in blood serum were measured using a Simoa® NF-light™ Advantage Kit by Quanterix. Higher concentrations of Nfl in subject blood serum is an indicator of clinical severity of HD, and lower concentrations compared to concentrations of the same subject indicates reversal or slowing of HD progression."}, "[6]": {"assay": "Safety profile from previous clinical trials of trehalose injection", "format": "in vivo, human", "conditions": "metabolized by trehalase enzymes into 2 glucose molecules", "source_text": "Risks of study participation also includes the risk of an infusion reaction or infusion site reactions. […] If needed, the use of an implanted venous access device (i.e., Mediport) or percutaneous indwelling catheter is permitted; however, if small caliber indwelling catheters in peripheral vessels is required, they should be for single use only. Additional risks include those risks related to venipuncture (e.g., hematoma, bleeding, pain, infection), which are low, and the risk of progression of disease for participants assigned to receive."}, "[7]": {"test_system": "EM48 (huntingtin protein; mHTT aggregates)", "assay": "EM48 immunohistochemistry in brain of R6/2 mice", "format": "in vivo, Mus musculus", "conditions": "MT-treated vs untreated transgenic R6/2 mice", "description": "as §1, with “Iba1+GFAP. Series 5 was collected as spare samples and series 6 was used for piloting and negative controls.” for “Iba1+GFAP.”\nas §3, §4"}, "[8]": {"test_system": "DARPP-32", "assay": "DARPP-32 immunohistochemistry in brain of R6/2 mice", "format": "in vivo, Mus musculus", "conditions": "MT-treated vs untreated transgenic R6/2 mice, FIG. 1", "description": "as §1, with “Iba1+GFAP. Series 5 was collected as spare samples and series 6 was used for piloting and negative controls.” for “Iba1+GFAP.”\nas §3, §4"}, "[9]": {"conditions": "administered orally in humans; cleaved by gut trehalase; cited from earlier work"}, "[10]": {"test_system": "transgenic R6/2 mice (a disease model for Huntington's Disease)", "assay": "Lifespan of R6/2 mice after treatment with MT", "format": "in vivo, Mus musculus", "conditions": "MT 5 g/kg i.p. 5 times per week from 4 weeks of age, vehicle 101, wild-type 181", "description": "The objective of this study was to assess the effects of molecular trehalose (MT) in the R6/2 mouse model of Huntington's disease through intraperitoneal (IP) injections. Treated mice […] were administered (i.e. dosed) with a MT intraperitoneal (i.p.) injection. Mice were weighed twice per week until 8 weeks post infusion i.e., 12 weeks of age or followed until survival. At a minimum of 8 weeks post infusion or MT dosing, mice were sacrificed 30 minutes after last MT, and the following tissues were collected: blood, brain, and tail. Immunohistochemistry analysis for GFAP, Iba1, EM-47 and Darpp-32 were performed on brain hemisphere 1 samples and the amount of MT in blood and brain hemisphere 2 samples was determined.\nMale R6/2 (B6CBA-Tg(HDexon1)62Gpb/3J) (The Jackson Laboratory, USA, JAX stock: 006494) mice (Mus musculus) between the ages of 28-33 days were used in this study. […]\nas §5, with “There were a total of 41 doses or doses stopped when mice were euthanized.” left out, “survival. […]” for “survival.”"}, "[11]": {"conditions": "3 months (12 weeks), 0.75 g/kg IV once weekly"}, "[12]": {"conditions": "after 3 months (12 weeks), 0.75 g/kg IV once weekly"}}}
{"compound": "OC[C@H]1O[C@H](O[C@H]2O[C@H](CO)[C@@H](O)[C@H](O)[C@H]2O)[C@H](O)[C@@H](O)[C@@H]1O", "note": "[MT, trehalose]", "values": [{"measurement": "levels of Iba-1 in the striatum (IHC, % staining area)", "setting": "[1]", "result": "lower levels"}, {"measurement": "CGI-S rating", "setting": "[2]; 3 months (12 weeks)", "result": "A Little Better"}, {"measurement": "CGIC rating", "setting": "[2]; 3 months (12 weeks)", "result": "A Little Better"}, {"measurement": "change in the UHDRS Functional Capacity", "setting": "[2]; [11]", "result": "no change"}, {"measurement": "change in the UHDRS Independence Scale", "setting": "[2]; [11]", "result": "no change"}, {"measurement": "Global impression of Health on a Visual Analog Scale", "setting": "[2]; [12]", "result": 90}, {"measurement": "mini-mental status examination (MMSE) score", "setting": "[2]; [12]", "result": 27}, {"measurement": "Global impression of Health on a Visual Analog Scale", "setting": "[2]; baseline", "result": 70}, {"measurement": "mini-mental status examination (MMSE) score", "setting": "[2]; baseline", "result": 26}, {"measurement": "levels of GFAP in the striatum (IHC, % staining area)", "setting": "[3]", "result": "lower levels"}, {"measurement": "average final body weight", "setting": "[4]", "result": 21.5, "unit": "g"}, {"measurement": "NfL Protein Concentration", "setting": "[5]; Screening / Day 0 (baseline before treatment)", "result": 21.20, "unit": "pg/mL"}, {"measurement": "NfL Protein Concentration", "setting": "[5]; Week 12 / Day 84, 0.75 g/kg IV once weekly", "result": 17.55, "unit": "pg/mL"}, {"measurement": "NfL Protein Concentration", "setting": "[5]; Week 24 / Day 168, 0.75 g/kg IV once weekly", "result": 19.95, "unit": "pg/mL"}, {"measurement": "active metabolites", "setting": "[6]", "result": "no active metabolites"}, {"measurement": "levels of EM48 in the cortex (IHC, positive cells/mm^2)", "setting": "[7]; FIG. 2", "result": "lower levels"}, {"measurement": "levels of EM48 in the striatum (IHC, positive cells/mm^2)", "setting": "[7]; FIG. 3", "result": "lower levels"}, {"measurement": "levels of DARPP-32 in the striatum (IHC, positive cells/mm^2)", "setting": "[8]", "result": "lower levels"}, {"measurement": "trehalose reaching systemic circulation", "setting": "[9]", "result": "< 0.5", "unit": "%"}, {"measurement": "median lifespan", "setting": "[10]", "result": 119, "unit": "days"}]}
